Measurements from ChEMBL document CHEMBL1131047, “Novel nonnucleoside inhibitors of HIV-1 reverse transcriptase. 7. 8-Arylethyldipyridodiazepinones as potent broad-spectrum inhibitors of wild-type and mutant enzymes” (J Med Chem, 1998).

Columns and labels:
[1] = biological target: Human immunodeficiency virus type 1 reverse transcriptase (Human immunodeficiency virus 1, UniProt Q72547, Y188L); experiment: Inhibitory activity against HIV-1 Y188L reverse transcriptase.
[2] = biological target: Human immunodeficiency virus type 1 reverse transcriptase (Human immunodeficiency virus 1, UniProt Q72547); experiment: Inhibitory activity against HIV-1 wild-type reverse transcriptase.
[3] = biological target: Human immunodeficiency virus type 1 reverse transcriptase (Human immunodeficiency virus 1, UniProt Q72547, Y181C); experiment: Inhibitory activity against HIV-1 Y181C reverse transcriptase.
[4] = biological target: Human immunodeficiency virus type 1 reverse transcriptase (Human immunodeficiency virus 1, UniProt Q72547, K103N); experiment: Inhibitory activity against HIV-1 Mutant Reverse transcriptase K103N
[5] = biological target: Human immunodeficiency virus type 1 reverse transcriptase (Human immunodeficiency virus 1, UniProt Q72547, V106A); experiment: Inhibitory activity against HIV-1 Mutant Reverse transcriptase V106A
[6] = biological target: Human immunodeficiency virus type 1 reverse transcriptase (Human immunodeficiency virus 1, UniProt Q72547, P236L); experiment: Inhibitory activity against HIV-1 Mutant Reverse transcriptase P236L
[7] = biological target: Human immunodeficiency virus type 1 reverse transcriptase (Human immunodeficiency virus 1, UniProt Q72547, G190A); experiment: Inhibitory activity against HIV-1 Mutant Reverse transcriptase G190A
[8] = tested on: C8166; experiment: Inhibitory activity against HIV-1 IIIB replication in C8166 cells.; assay type: functional, cell-based; conditions: Homo sapiens

Row | Compound | IC50 [1] | IC50 [2] | IC50 [3] | also measured
1 | CCN1c2ncc(CCc3ccc(N)cc3)cc2C(=O)N(C)c2ccc(Cl)nc21 | > 1000 nM | 160 nM | 360 nM | –
2 | CCN1c2ncc(CCc3ccccc3C)cc2C(=O)N(C)c2cccnc21 | > 1000 nM | 200 nM | 1600 nM | –
3 | CCN1c2ncc(CCc3ccncc3)cc2C(=O)N(C)c2ccc(I)nc21 | 430 nM | 90 nM | 180 nM | –
4 | CCN1c2ncc(CCc3cccc(F)c3)cc2C(=O)N(C)c2cccnc21 | > 1000 nM | 120 nM | 370 nM | –
5 | CCN1c2ncc(CCc3ccc(C)cc3)cc2C(=O)N(C)c2ccc(Cl)nc21 | > 1000 nM | 230 nM | 1180 nM | –
6 | CCN1c2ncc(CCc3ccnc(C(N)=O)c3)cc2C(=O)N(C)c2ccc(Cl)nc21 | 4000 nM | 50 nM | 250 nM | –
7 | CCN1c2ncc(Cl)cc2C(=O)N(C)c2cccnc21 | – | 540 nM | > 1000 nM | –
8 | CCN1c2ncc(CCC(=O)OC)cc2C(=O)N(C)c2cccnc21 | – | 90 nM | 140 nM | –
9 | CCN1c2ncc(CCc3ccnc(C(=O)OC)c3)cc2C(=O)N(C)c2ccc(Cl)nc21 | 6000 nM | 150 nM | 480 nM | –
10 | CCN1c2ncc(CCc3ccnc(C)c3)cc2C(=O)N(C)c2ccc(Cl)nc21 | > 1000 nM | 60 nM | 140 nM | –
11 | CCN1c2ncc(CCc3ccccc3C)cc2C(=O)N(C)c2ccc(Cl)nc21 | > 1000 nM | > 1000 nM | > 1000 nM | –
12 | CCN1c2ncc(N)cc2C(=O)N(C)c2cccnc21 | – | 100 nM | – | –
13 | CCN1c2ncc(/C=C\c3ccccc3)cc2C(=O)N(C)c2cccnc21 | – | 250 nM | 580 nM | –
14 | CCN1c2ncc(C)cc2C(=O)N(C)c2cccnc21 | – | 750 nM | > 1000 nM | –
15 | CCN1c2ncc(CCc3cccc(N)c3)cc2C(=O)N(C)c2cccnc21 | > 1000 nM | 40 nM | 70 nM | –
16 | CCN1c2ncc(CCc3ccc(N)cc3)cc2C(=O)N(C)c2cccnc21 | > 1000 nM | 60 nM | 200 nM | –
17 | CCN1c2ncccc2C(=O)N(C)c2cccnc21 | – | 90 nM | – | –
18 | CCN1c2ncc(NC(N)=O)cc2C(=O)N(C)c2cccnc21 | – | 1100 nM | – | –
19 | CCN1c2ncc(Cc3ccccc3)cc2C(=O)N(C)c2cccnc21 | – | 120 nM | 1200 nM | –
20 | CCN1c2ncc(C(=O)O)cc2C(=O)N(C)c2cccnc21 | – | > 1000 nM | – | –
21 | CCN1c2ncc(CCc3ccccn3)cc2C(=O)N(C)c2cccnc21 | > 1000 nM | 190 nM | > 1000 nM | –
22 | CCN1c2ncc(CCc3cccc(C)c3)cc2C(=O)N(C)c2ccc(Cl)nc21 | > 1000 nM | 110 nM | 460 nM | –
23 | CCN1c2ncc(CCc3cccc(N)c3)cc2C(=O)N(C)c2ccc(Cl)nc21 | 250 nM | 120 nM | 230 nM | IC50 [4]: 10 nM; IC50 [5]: 90 nM; IC50 [6]: 40 nM; IC50 [7]: 10 nM
24 | CCN1c2ncc(CCc3ccccc3)cc2C(=O)N(C)c2cccnc21 | – | 50 nM | 130 nM | –
25 | CCN1c2ncc(/C=C/c3ccncc3)cc2C(=O)N(C)c2cccnc21 | – | 3000 nM | > 1000 nM | –
26 | CCN1c2ncc(CCc3ccncc3)cc2C(=O)N(C)c2ccc(C#N)nc21 | > 1000 nM | 460 nM | 290 nM | –
27 | CCN1c2ncc(CCc3cccc(NS(C)(=O)=O)c3)cc2C(=O)N(C)c2ccc(Cl)nc21 | > 1000 nM | 140 nM | 140 nM | –
28 | CCN1c2ncc(CCc3ccc4ccccc4c3)cc2C(=O)N(C)c2ccc(F)nc21 | > 1000 nM | 20 nM | 30 nM | –

Row | Compound | IC50 [1] | IC50 [2] | IC50 [3] | also measured
29 | CCN1c2ncc(CCc3ccc(C)cc3)cc2C(=O)N(C)c2cccnc21 | > 1000 nM | 100 nM | 250 nM | –
30 | CCN1c2ncc(CCc3ccnc(CO)c3)cc2C(=O)N(C)c2ccc(Cl)nc21 | > 1000 nM | 160 nM | 280 nM | –
31 | CCN1c2ncc(CCc3ccccc3)cc2C(=O)N(C)c2ccc(Cl)nc21 | – | – | – | IC50 [8]: 12 nM
32 | CCN1c2ncc(CCCO)cc2C(=O)N(C)c2cccnc21 | – | 300 nM | 2900 nM | –
33 | CCN1c2ncc(-c3cccc(OC)c3)cc2C(=O)N(C)c2cccnc21 | – | > 1000 nM | > 1000 nM | –
34 | CCN1c2ncc(CCc3ccnc(C)c3)cc2C(=O)N(C)c2cccnc21 | > 1000 nM | 30 nM | 90 nM | –
35 | CCN1c2ncc(CCC#N)cc2C(=O)N(C)c2cccnc21 | – | 210 nM | 2160 nM | –
36 | CCN1c2ncc(CCc3ccc4ccccc4c3)cc2C(=O)N(C)c2ccc(Cl)nc21 | > 1000 nM | 1020 nM | 2880 nM | –
37 | CCN1c2ncc(/C=C/C(=O)OC)cc2C(=O)N(C)c2cccnc21 | – | > 1000 nM | – | –
38 | CCN1c2ncc(CCc3ccnc(C(=O)O)c3)cc2C(=O)N(C)c2ccc(Cl)nc21 | > 1000 nM | 1500 nM | 3800 nM | –
39 | CCN1c2ncc(CCc3ccccc3N)cc2C(=O)N(C)c2cccnc21 | > 1000 nM | 80 nM | 1700 nM | –
40 | CCN1c2ncc(CCO)cc2C(=O)N(C)c2cccnc21 | – | 430 nM | 2500 nM | –
41 | CCN1c2ncc(CCc3cccc(NC(N)=O)c3)cc2C(=O)N(C)c2ccc(Cl)nc21 | 230 nM | 60 nM | 80 nM | IC50 [8]: 39 nM
42 | CCN1c2ncc(CCc3cccnc3)cc2C(=O)N(C)c2cccnc21 | > 1000 nM | 130 nM | 320 nM | –
43 | CCN1c2ncc(CCc3ccccc3)cc2C(=O)N(C)c2ccc(C3=CCC=N3)nc21 | 1280 nM | 590 nM | 520 nM | –
44 | CCN1c2ncc(CCc3cncnc3)cc2C(=O)N(C)c2cccnc21 | > 1000 nM | 540 nM | > 1000 nM | –
45 | CCN1c2ncc(CCc3nccs3)cc2C(=O)N(C)c2cccnc21 | > 1000 nM | 40 nM | 440 nM | –
46 | CCN1c2ncc(CCc3ccc4ccccc4c3)cc2C(=O)N(C)c2cccnc21 | > 1000 nM | 80 nM | 150 nM | –
47 | CCN1c2ncc(CCc3ccncc3)cc2C(=O)N(C)c2ccc(F)nc21 | 250 nM | 50 nM | 80 nM | IC50 [4]: 20 nM; IC50 [5]: 250 nM; IC50 [6]: 50 nM; IC50 [7]: 60 nM
48 | CCN1c2ncc(CO)cc2C(=O)N(C)c2cccnc21 | – | 50 nM | 740 nM | –
49 | CCN1c2ncc(CCc3cccc(C)c3)cc2C(=O)N(C)c2cccnc21 | > 1000 nM | 110 nM | 280 nM | –
50 | CCN1c2ncc(CCc3ccncc3)cc2C(=O)N(C)c2cccnc21 | > 1000 nM | 30 nM | 110 nM | IC50 [8]: 25 nM
51 | CCN1c2ncc(CCCc3ccccc3)cc2C(=O)N(C)c2cccnc21 | – | 120 nM | 1170 nM | –
52 | CCN1c2ncc(CCc3ccc(NS(C)(=O)=O)cc3)cc2C(=O)N(C)c2ccc(Cl)nc21 | > 1000 nM | 330 nM | 560 nM | –
53 | CCN1c2ncc(CCc3ccncc3)cc2C(=O)N(C)c2ccc(Cl)nc21 | – | – | – | IC50 [8]: 9 nM
54 | CCN1c2ncc(CCc3cccc(N=[N+]=[N-])c3)cc2C(=O)N(C)c2ccc(Cl)nc21 | > 1000 nM | 80 nM | 160 nM | –
55 | CCN1c2ncc(CCC(N)=O)cc2C(=O)N(C)c2cccnc21 | – | 620 nM | 6100 nM | –
